One block for each molecule: values may come before it.
System: 782815-120-R-J1-PDC complex spheroid viability
Assay: Anticancer human tumor 782815-120-R-J1-PDC patient-derived colon adenocarcinoma cell line growth inhibition [RAS]
Conditions: for IC50: curve of first compound; for viability, T/C: stronger effect = lower value
Method in brief: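 Agents were tested in combination matrices in half-log decrements from a top concentration at or near clinical Cmax (10 microM if undetermined). Targets were multi-cell spheroids of tumour lines plus HUVEC and MSC stromal cells.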

[1] = second compound 0.000949 µM, first compound 0.0316 µM
[2] = second compound 0.000949 µM, first compound 0.1 µM
[3] = second compound 0.000949 µM, first compound 0.316 µM
[4] = second compound 0.000949 µM, first compound 1 µM
[5] = second compound 0.000949 µM, first compound 3.16 µM
[6] = second compound 0.000949 µM, first compound 10 µM
[7] = second compound 0.003 µM, first compound 0.0316 µM
[8] = second compound 0.003 µM, first compound 0.1 µM
[9] = second compound 0.003 µM, first compound 0.316 µM
[10] = second compound 0.003 µM, first compound 1 µM
[11] = second compound 0.003 µM, first compound 3.16 µM
[12] = second compound 0.003 µM, first compound 10 µM
[13] = second compound 0.00949 µM, first compound 0.0316 µM
[14] = second compound 0.00949 µM, first compound 0.1 µM
[15] = second compound 0.00949 µM, first compound 0.316 µM
[16] = second compound 0.00949 µM, first compound 1 µM
[17] = second compound 0.00949 µM, first compound 3.16 µM
[18] = second compound 0.00949 µM, first compound 10 µM
[19] = second compound 0.03 µM, first compound 0.0316 µM
[20] = second compound 0.03 µM, first compound 0.1 µM
[21] = second compound 0.03 µM, first compound 0.316 µM
[22] = second compound 0.03 µM, first compound 1 µM
[23] = second compound 0.03 µM, first compound 3.16 µM
[24] = second compound 0.03 µM, first compound 10 µM
[25] = second compound 0.0949 µM, first compound 0.0316 µM
[26] = second compound 0.0949 µM, first compound 0.1 µM
[27] = second compound 0.0949 µM, first compound 0.316 µM
[28] = second compound 0.0949 µM, first compound 1 µM
[29] = second compound 0.0949 µM, first compound 3.16 µM
[30] = second compound 0.0949 µM, first compound 10 µM
[31] = second compound 0.3 µM, first compound 0.0316 µM
[32] = second compound 0.3 µM, first compound 0.1 µM
[33] = second compound 0.3 µM, first compound 0.316 µM
[34] = second compound 0.3 µM, first compound 1 µM
[35] = second compound 0.3 µM, first compound 3.16 µM
[36] = second compound 0.3 µM, first compound 10 µM
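Note: spheroids exposed to compounds for 7 days before reading.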
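Throughout, for viability, T/C: 100% = DMSO vehicle control viability.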

IC50 (second compound 0.000949 µM): 3.34 µM | IC50 (second compound 0.003 µM): < 0.0316 µM | IC50 (second compound 0.00949 µM): < 0.0316 µM | IC50 (second compound 0.03 µM): < 0.0316 µM | IC50 (second compound 0.0949 µM): < 0.0316 µM | IC50 (second compound 0.3 µM): < 0.0316 µM
Compound: CC1(O)CCCC1n1c(=O)c(C(F)F)cc2cnc(NC3CCN(S(C)(=O)=O)CC3)nc21 (centres undefined) + CCn1c(-c2cc(N3CCN(C)CC3)cnc2C(C)OC)c2c3cc(ccc31)-c1csc(n1)CC(NC(=O)C1CC1C)C(=O)N1CCCC(N1)C(=O)OCC(C)(C)C2
viability, T/C [1]: 58.6% | viability, T/C [2]: 48.5% | viability, T/C [3]: 45% | viability, T/C [4]: 53.4% | viability, T/C [5]: 52.9% | viability, T/C [6]: 17% | viability, T/C [7]: 40.2% | viability, T/C [8]: 45.4% | viability, T/C [9]: 41.3% | viability, T/C [10]: 41.8% | viability, T/C [11]: 39.1% | viability, T/C [12]: 15.1% | viability, T/C [13]: 26.1% | viability, T/C [14]: 28.3% | viability, T/C [15]: 22.4% | viability, T/C [16]: 26.3% | viability, T/C [17]: 30% | viability, T/C [18]: 8.61% | viability, T/C [19]: 16.6% | viability, T/C [20]: 17.6% | viability, T/C [21]: 17.4% | viability, T/C [22]: 15.8% | viability, T/C [23]: 22.4% | viability, T/C [24]: 4.67% | viability, T/C [25]: 12.4% | viability, T/C [26]: 13.8% | viability, T/C [27]: 13.6% | viability, T/C [28]: 13.5% | viability, T/C [29]: 18.5% | viability, T/C [30]: 5.05% | viability, T/C [31]: 14.8% | viability, T/C [32]: 12.7% | viability, T/C [33]: 13.9% | viability, T/C [34]: 15% | viability, T/C [35]: 18.2% | viability, T/C [36]: 4.68%

IC50 (second compound 0.000949 µM): 2.02 µM | IC50 (second compound 0.003 µM): 1.06 µM | IC50 (second compound 0.00949 µM): < 0.0316 µM | IC50 (second compound 0.03 µM): < 0.0316 µM | IC50 (second compound 0.0949 µM): < 0.0316 µM | IC50 (second compound 0.3 µM): < 0.0316 µM
Compound: CCC(CC)c1cc(NC2CCC(N)C2)n2nccc2n1 (centres undefined) + CCn1c(-c2cc(N3CCN(C)CC3)cnc2C(C)OC)c2c3cc(ccc31)-c1csc(n1)CC(NC(=O)C1CC1C)C(=O)N1CCCC(N1)C(=O)OCC(C)(C)C2
viability, T/C [1]: 69.7% | viability, T/C [2]: 75.9% | viability, T/C [3]: 74.2% | viability, T/C [4]: 84.7% | viability, T/C [5]: 33.4% | viability, T/C [6]: 1.4% | viability, T/C [7]: 56.2% | viability, T/C [8]: 53.3% | viability, T/C [9]: 57.4% | viability, T/C [10]: 52% | viability, T/C [11]: 12.1% | viability, T/C [12]: 1.08% | viability, T/C [13]: 32.4% | viability, T/C [14]: 37.1% | viability, T/C [15]: 33.6% | viability, T/C [16]: 33.7% | viability, T/C [17]: 6.65% | viability, T/C [18]: 1.2% | viability, T/C [19]: 21.2% | viability, T/C [20]: 20% | viability, T/C [21]: 19.9% | viability, T/C [22]: 20.9% | viability, T/C [23]: 3.02% | viability, T/C [24]: 1.53% | viability, T/C [25]: 18.6% | viability, T/C [26]: 19.7% | viability, T/C [27]: 16.1% | viability, T/C [28]: 16.4% | viability, T/C [29]: 2.74% | viability, T/C [30]: 1.31% | viability, T/C [31]: 16.6% | viability, T/C [32]: 15.1% | viability, T/C [33]: 16.5% | viability, T/C [34]: 15.2% | viability, T/C [35]: 1.69% | viability, T/C [36]: 1.33%
